From publication PMC7066533 (Frontiers in Pharmacology, 2020)
Values joined by “and” are separate entries in the source; they are usually repeats but may differ in a detail not shown here. Identical values can stand only once. Like-named read-outs stand apart in the source and are kept apart here. Square brackets hold non-standard residues; d marks the D form. Peptide text beside a SMILES is read from it. βAla = NCCC(=O)O

Columns and labels:
[1] = target: T1, hMOPr (Homo sapiens, UniProt P35372); assay: Displacement binding assay with [3H]DAMGO on HEK-293/hMOPr membranes
T1 construct: expressed in transfected cells
T1 sequence (P35372 whole entry): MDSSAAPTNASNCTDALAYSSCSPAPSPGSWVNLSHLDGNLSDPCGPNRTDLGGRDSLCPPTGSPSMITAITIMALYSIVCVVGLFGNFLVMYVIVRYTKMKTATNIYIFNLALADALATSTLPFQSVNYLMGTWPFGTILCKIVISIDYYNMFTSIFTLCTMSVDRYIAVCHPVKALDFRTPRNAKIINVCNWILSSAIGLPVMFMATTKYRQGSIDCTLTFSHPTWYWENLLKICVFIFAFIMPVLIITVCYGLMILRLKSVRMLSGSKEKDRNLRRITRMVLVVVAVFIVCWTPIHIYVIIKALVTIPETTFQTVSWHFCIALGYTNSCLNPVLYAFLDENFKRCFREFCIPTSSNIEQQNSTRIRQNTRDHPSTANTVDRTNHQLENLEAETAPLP

[2] = target: T2, hDOPr (Homo sapiens, UniProt P41143); assay: Displacement binding assay with [3H]diprenorphine on HEK-293/hDOPr membranes
T2 construct: expressed in transfected cells
T2 sequence (P41143 whole entry): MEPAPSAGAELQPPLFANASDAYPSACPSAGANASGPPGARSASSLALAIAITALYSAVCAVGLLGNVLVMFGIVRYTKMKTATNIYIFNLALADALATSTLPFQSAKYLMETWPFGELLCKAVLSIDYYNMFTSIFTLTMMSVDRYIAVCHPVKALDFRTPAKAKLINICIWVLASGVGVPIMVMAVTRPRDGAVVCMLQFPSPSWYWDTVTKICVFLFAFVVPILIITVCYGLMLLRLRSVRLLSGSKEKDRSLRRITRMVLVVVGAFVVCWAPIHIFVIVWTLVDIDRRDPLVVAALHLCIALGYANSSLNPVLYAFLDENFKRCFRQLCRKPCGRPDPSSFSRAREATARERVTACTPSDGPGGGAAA

[3] = target: T3, KOPr (Homo sapiens, UniProt P41145); assay: cell-based
T3 sequence (P41145 whole entry): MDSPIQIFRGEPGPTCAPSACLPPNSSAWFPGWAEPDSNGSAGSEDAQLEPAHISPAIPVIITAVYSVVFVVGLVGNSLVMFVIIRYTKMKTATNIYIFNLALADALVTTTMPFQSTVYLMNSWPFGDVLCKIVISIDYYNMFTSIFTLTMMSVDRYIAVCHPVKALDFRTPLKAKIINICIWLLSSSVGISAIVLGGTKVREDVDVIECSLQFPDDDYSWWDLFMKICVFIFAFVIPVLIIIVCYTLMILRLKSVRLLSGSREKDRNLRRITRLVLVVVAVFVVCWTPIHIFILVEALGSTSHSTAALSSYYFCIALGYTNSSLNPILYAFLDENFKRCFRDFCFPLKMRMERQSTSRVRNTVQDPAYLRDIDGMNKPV

[4] = target: KOPr in U87-MG human astrocytoma cells (Homo sapiens, UniProt P41145); assay: cell-based; conditions: U-87 MG, read-out: Emax U87-MG
Chain of KOPr in U87-MG human astrocytoma cells (P41145 whole entry): as above

[5] = target: KOPr in normal human astrocytes (Homo sapiens, UniProt P41145); assay: cell-based; conditions: read-out: Emax NHA
Chain of KOPr in normal human astrocytes (P41145 whole entry): as above

[6] = target: T3, KOPr; type: cell-based
[7] = tested on: hKOPr; type: cell-based, human
[8] = tested on: ERK1/2 phosphorylation; assay: ERK1/2 phosphorylation, western blot; type: cell-based, human
Description: HEK-293 cells stably expressing KOPr, U87-MG astrocytoma cells, or normal human astrocytes endogenously expressing KOPr were plated into 6-well plates until 60–70% confluence was reached. Then, the cells were serum-starved for 16–18 h and subsequently exposed to vehicle, LOR17 (1 μM; 0–120 min) or U50,488 (1 μM; 0–120 min). Alternatively, […] and U87-MG cells were exposed to norBNI (10 μM; 30 min prior to LOR17) and then treated with 1 μM LOR17, or they were exposed to increasing concentration of LOR17 (1–100 μM; 30 min). Proteins were extracted as previously reported ([Kuhar et al., 2015]), quantified by means of BCA assay (Pierce) and SDS-page gel electrophoresis performed as previously described for ERK1/2 ([Baiula et al., 2016]) and p38MAPK ([Schattauer et al., 2012]).
Membranes were then incubated with anti-phospho-ERK 1/2 (1:1,000) (Cell Signaling Technology, Danvers, MA, USA), anti-total ERK1/2 antibodies (1:1,000) (Cell Signaling Technology), anti-phospho-p38MAPK antibodies (1:1,000) (Cell Signaling Technology, Danvers, MA, USA), or anti-actin antibodies (1:2,500) (Santa Cruz Biotechnology, Dallas, TX, USA) at 4°C in the presence of BSA (5 g/100 ml) in Tris buffered saline containing Tween-20 (0.1 g/100 ml). […]

[9] = tested on: p38MAPK phosphorylation; type: cell-based, human
[10] = tested on: U87-MG cells; assay: Cell proliferation assay ([3H]-thymidine incorporation) in U87-MG cells; type: cell-based, human
Description: A cell proliferation assay was carried out as previously reported ([Bedini et al., 2017]). Briefly, U87-MG cells or normal human astrocytes were plated on a 12-well plate and treated as described in the results section or maintained in cell culture medium containing 10% fetal bovine serum. Five hours before the end of the treatments, [methyl-^3H] thymidine (Perkin Elmer) (50 nM final concentration) was added to serum-free cell culture medium, and the plate was incubated at 37°C. Thereafter, the medium was removed, and the cells were washed twice with PBS. Then, 200 μl of PBS was added to each well, and the cells were scraped off and centrifuged at 13,000 g for 3 min at 4°C. The supernatants were then discarded, pellets were re-suspended in 500 μl of cold trichloroacetic acid (10% w/v), incubated on ice for 20 min and centrifuged at 13,000 g for 3 min at 4°C. The supernatant was then discarded, and the pellet was suspended in 500 μl of cold methanol and centrifuged at 3 min for 13,000 g at 4°C. Thereafter, the pellet was suspended in 200 μl of 1 N NaOH and heated at 55°C for 10 min. Samples were then neutralized with 200 μl of 1 N HCl and 350 μl of the labelled DNA incubated in counting vials with 4 ml of Filter Count scintillation liquid (Perkin Elmer Italia). Vials were vortexed and incubated overnight at room temperature, and the radioactivity was determined by liquid scintillation spectrometry.

[11] = tested on: CD-1 adult male mice; assay: Warm-water tail-withdrawal test; type: in vivo, mouse
Description: The warm-water tail-withdrawal test was performed as previously described ([Bedini et al., 2010]). Briefly, a mouse’s tail was immersed in hot water (52 ± 0.5°C), and the latency to tail withdrawal was measured as an indicator of nociception. Prior to being treated, each mouse was tested, and the latency to tail withdrawal was recorded (control latency, CL). Animals not withdrawing their tails within 5 s were not used (6% of mice). Responding animals were then injected i.p. with either vehicle or one of the compounds (LOR17 or U50,488; 0–20 mg/kg). The KOR antagonist norBNI (10 mg/kg; i.p.) was injected 30 min or 24 h prior to administering LOR17.
Latency to withdrawal was measured at 5, 15, 30, 45, 60, and 90 min after drug administration and defined as the test latency (TL), with a cutoff time of 10 s.

[12] = tested on: CD-1 adult male mice; conditions: mouse, in vivo
[13] = tested on: CD-1 adult male mice; conditions: mouse, in vivo; remark: listed apart in the source
[14] = tested on: CD-1 adult male mice; assay: Hole-board test; type: in vivo, mouse; conditions: 10 mg/kg s.c.
Description: The hole-board test consisted of a […] plane with 16 flush-mounted cylindrical holes (3 cm diameter) distributed four by four in an equidistant, grid-like manner. Mice were placed on the center of the board one by one and allowed to move about freely for a period of 5 min. Two electric eyes, crossing the plane from midpoint to midpoint of the opposite sides, thus dividing the plane into four equal quadrants, automatically signaled the movement of the animal (counts in 5 min) on the surface of the plane (spontaneous motility). Miniature photoelectric cells in each of the 16 holes recorded (counts in 5 min) the exploration of the holes (exploratory activity) by the mice ([Guerrini et al., 2006]).

[15] = tested on: CD-1 adult male mice; conditions: mouse, in vivo; remark: listed apart in the source
[16] = tested on: normal human astrocytes; type: cell-based; conditions: SB203580 2 µM, 30 min prior to U50,488
[17] = norBNI 10 µM 15 min prior, SB203580 2 µM 30 min prior, LOR17 10 μM co-administered

`O=C1CNC(=O)[C@H](Cc2ccccc2)NC(=O)[C@@H](Cc2c[nH]c3ccccc23)NC(=O)CCN1` [LOR17, c[Phe-Gly-(β-Ala)-D-Trp]] (cyclo(FG[βAla][dW])) was tested. Which Ki [1] did it give?
The Ki was greater than 100 µM.

What about the Ki [2] of the same compound?
The Ki was greater than 100 µM.

What about the “log(τ/KA) G Protein” value [3] of the same compound?
The value was 8,856.

What about the “Δlog(τ/KA) G Protein” value [3] of the same compound?
Its value is 0,261.

And the Emax ([3]; HEK293, read-out: Emax HEK-293/KOR)?
The Emax was 85 ± 5%.

What about the Emax [4] of the same compound?
Its Emax is 87 ± 4%.

And the Emax [5]?
The Emax was 88 ± 6%.

And the “log(τ/KA) β-arrestin 2” value [6]?
The value was 3,432.

What about the “Δlog(τ/KA) β-arrestin 2” value [6] of the same compound?
The value was -2,67.

And the “β-arrestin 2 recruitment at KOPr” value [6]?
Its value is “very week β-arrestin 2 recruitment at KOPr and only at concentrations higher than 1 μM”.

And the “Bias Factor” value [7]?
The value was 853.

And the “ΔΔlog(τ/KA)” value [7]?
The value was 2,931.

And the “ERK1/2 phosphorylation levels vs vehicle” value [8]?
Its value is “significant increase in ERK1/2 phosphorylation only after 15 min of exposure”.

And the “Effect on U50,488-induced p38MAPK phosphorylation” value [9]?
The value was “counteracted U50,488-induced p38MAPK phosphorylation in a concentration-dependent fashion”.

And the “p38MAPK phosphorylation vs vehicle” value [9]?
Its value is “does not influence p38MAPK phosphorylation”.

And the “Effect on U50,488 (1 µM)-mediated increase of U87-MG cell proliferation” value [10]?
The value was “prevented the increase in U87-MG cell proliferation”.

What about the “U87-MG cell proliferation rate vs vehicle” value [10] of the same compound?
The value was “did not alter the U87-MG cell proliferation rate”.

And the “Antinociception in the tail-withdrawal test” value ([11]; mouse, in vivo)?
The value was “antinociceptive response in a dose- and time-dependent fashion”.

What about the “ED50, warm-water tail-withdrawal test” value ([11]; mouse, in vivo, ip) of the same compound?
Its value is 10.07 ± 0.36 mg/kg.

What about the “Number of writhes vs vehicle” value [12] of the same compound?
The value was “significantly reduced the number of writhes”.

What about the “ED50, writhing test” value ([12]; ip) of the same compound?
Its value is 5.74 ± 0.46 mg/kg.

And the “Effect on oxaliplatin-induced thermal hypersensitivity, single s.c. administration” value [13]?
Its value is “fully reversed the oxaliplatin-dependent hypersensitivity”.

And the “Efficacy in cold plate test after repeated treatment” value [13]?
The value was “maintains its efficacy”.

And the “Licking latency (maximal effect)” value [13]?
The value was 18.2 ± 1.4 s and 19.6 ± 1.7 s.

And the “Dose from which licking latency increase takes effect” value ([13]; sc)?
The value was 1 mg/kg.

What about the “ED50, oxaliplatin-induced thermal hypersensitivity (cold plate test)” value ([13]; sc) of the same compound?
The value was 6.63 ± 0.23 mg/kg.

And the “Board (locomotor activity)” value ([14]; 0 min)?
Its value is 89.2 ± 7.3 counts in 5 min.

What about the “Hole (exploratory activity)” value ([14]; 0 min) of the same compound?
Its value is 37.2 ± 3.9 counts in 5 min.

And the “Board (locomotor activity)” value ([14]; 30 min)?
The value was 97.2 ± 16.9 counts in 5 min.

What about the “Hole (exploratory activity)” value ([14]; 30 min) of the same compound?
Its value is 39.0 ± 4.6 counts in 5 min.

And the Mobility time [15]?
The Mobility time was 91.6 ± 12.3 s.

With `C[S+]([O-])c1ccc(-c2nc(-c3ccncc3)c(-c3ccc(F)cc3)[nH]2)cc1` (stereo not drawn) [SB203580, reference compound] as the compound, how does the “Effect on U50,488 (1 µM)-mediated increase of U87-MG cell proliferation” value [10, 17] read?
The value was “prevented”.

And the “Effect on U50,488 (1 µM)-enhanced normal human astrocyte cell proliferation” value [16]?
The value was “abolished”.

For `Oc1ccc2c3c1O[C@H]1c4[nH]c5c(c4C[C@@]4(O)[C@@H](C2)N(CC2CC2)CC[C@]314)C[C@@]1(O)[C@H]2Cc3ccc(O)c4c3[C@@]1(CCN2CC1CC1)[C@H]5O4` [norBNI, norbinaltorphimine, reference compound], which “LOR17 (1 μM)-mediated increase in ERK1/2 phosphorylation after antagonist” value ([8]; norBNI 10 μM, 30 min prior to LOR17, HEK-293/hKOPr and U87-MG cells) is on record?
The value was “fully reverted”.

What about the “Effect on U50,488 (1 µM)-mediated increase of U87-MG cell proliferation” value [10, 17] of the same compound?
Its value is “prevented”.

What about the “Effect on LOR17-mediated antinociception in the tail-withdrawal test” value ([11]; norBNI 10 mg/kg i.p.) of the same compound?
The value was “prevented”.
